# Results published in US6995188B2 (priority 2002, dated 2006).
# Values joined by “and” are separate entries in the source; they are usually repeats but may differ in a detail not shown here. Identical values can stand only once.
# Experiments:
# [1] = test system: human leukemia cell lines; type: cell-based
# [2] = test system: mitochondrial membrane potential; type: cell-based, human
# NB4 cells = type: cell-based, human
# [3] = SGLU1 multiple dose toxicology in vivo; parameters: species or system mice; key to Death: “—” indicates no compound-related finding
# Procedure: Further studies were performed to determine the dose-limiting toxicity associated with the administration of repeated doses in groups of mice. Tables 11–16 below describe the results of the multiple-dose toxicology studies for MER-1 and Tables 17–21 describe results of the multiple-dose toxicology of SGLU-1.
# The results of the SGLU-1 Multiple Dose I.V. are summarized as follows: Five mice/sex were administered 5 daily intravenous injections of SGLU via the tail vein at doses of 50, 100, 150, 200, 250, 300, and 350 mg/kg/day. All surviving mice were held for 28 days, sacrificed, and designated tissues collected, formalin fixed, and examined.
smiles,measurement,setting,value
"C[As](C)SC[C@H](NC(=O)CC[C@H](N)C(=O)O)C(=O)NCC(=O)O [SGLU1, S-(dimethylarsino) glutathione]",anti-cancer activity against a panel of human leukemia cell lines,[1],significant anti-cancer activity
same,change of the potential of mitochondrial membrane (CMXRos staining),[2],involves change of the potential of mitochondrial membrane
same,induction of maturation (CD11b expression),NB4 cells,do not induce maturation
same,Clinical Signs,[3]; 50 mg/kg/day IV daily x5,None.
same,Death,[3]; 50 mg/kg/day IV daily x5,—
same,"Kidney: Murine progressive glomerulonephropathy, incidence","[3]; 50 mg/kg/day, F",1/5
same,"Liver: Pyogranuloma, focal, incidence","[3]; 50 mg/kg/day, F",1/5
same,"Lung: Hemorrhage, focal, incidence","[3]; 50 mg/kg/day, F",1/5
same,Number of animals/dose that tolerated 5 doses,"[3]; 50 mg/kg/day, F",5/5
same,Body Weights Avg.,"[3]; 50 mg/kg/day, Female",25 grams
same,"Liver: Pyogranuloma, focal, incidence","[3]; 50 mg/kg/day, M",1/5
same,"Lung: Atelectasis, incidence","[3]; 50 mg/kg/day, M",1/5
same,"Lung: Pleural adhesion, focal, incidence","[3]; 50 mg/kg/day, M",1/5
same,Number of animals/dose that tolerated 5 doses,"[3]; 50 mg/kg/day, M",5/5
same,Body Weights Avg.,"[3]; 50 mg/kg/day, Male",25 grams
same,Clinical Signs,[3]; 100 mg/kg/day IV daily x5,None.
same,Death,[3]; 100 mg/kg/day IV daily x5,—
same,"Kidney: Inflammation, focal, incidence","[3]; 100 mg/kg/day, F",2/5
same,"Liver: Pyogranuloma, focal, incidence","[3]; 100 mg/kg/day, F",5/5
same,Number of animals/dose that tolerated 5 doses,"[3]; 100 mg/kg/day, F",5/5
same,Body Weights Avg.,"[3]; 100 mg/kg/day, Female",24 grams
same,"Liver: Pyogranuloma, focal, incidence","[3]; 100 mg/kg/day, M",1/5
same,Number of animals/dose that tolerated 5 doses,"[3]; 100 mg/kg/day, M",5/5
same,Body Weights Avg.,"[3]; 100 mg/kg/day, Male",23 grams
same,Clinical Signs,[3]; 150 mg/kg/day IV daily x5,None.
same,Death,[3]; 150 mg/kg/day IV daily x5,—
same,"Liver: Inflammation, portal, incidence","[3]; 150 mg/kg/day, F",2/5
same,"Liver: Pyogranuloma, focal, incidence","[3]; 150 mg/kg/day, F",3/5
same,Number of animals/dose that tolerated 5 doses,"[3]; 150 mg/kg/day, F",5/5
same,Body Weights Avg.,"[3]; 150 mg/kg/day, Female",25 grams
same,"Kidney: Inflammation, focal, incidence","[3]; 150 mg/kg/day, M",1/5
same,"Liver: Pyogranuloma, focal, incidence","[3]; 150 mg/kg/day, M",1/5
same,"Lung: Inflammation, focal, incidence","[3]; 150 mg/kg/day, M",1/5
same,Number of animals/dose that tolerated 5 doses,"[3]; 150 mg/kg/day, M",5/5
same,"Tail: Acute necrosis with vasculitis, thrombosis, and hemorrhage, incidence","[3]; 150 mg/kg/day, M",1/5
same,"Tail: Ulcerative dermatitis, incidence","[3]; 150 mg/kg/day, M",1/5
same,"Testes: Seminiferous tubular degeneration, incidence","[3]; 150 mg/kg/day, M",1/5
same,Body Weights Avg.,"[3]; 150 mg/kg/day, Male",23 grams
same,Clinical Signs,[3]; 200 mg/kg/day IV daily x5,2 F tail necrosis: amputate
same,Death,[3]; 200 mg/kg/day IV daily x5,—
same,"Kidney: Inflammation, focal, incidence","[3]; 200 mg/kg/day, F",2/5
same,"Liver: Hepatocyte hypertrophy: Centrilobular (compatible with SER), incidence","[3]; 200 mg/kg/day, F",1/5
same,"Liver: Increased mitoses, incidence","[3]; 200 mg/kg/day, F",1/5
same,"Liver: Inflammation, portal, incidence","[3]; 200 mg/kg/day, F",3/5
same,"Liver: Pyogranuloma, focal, incidence","[3]; 200 mg/kg/day, F",3/5
same,Number of animals/dose that tolerated 5 doses,"[3]; 200 mg/kg/day, F",5/5
same,"Tail: Acute necrosis with vasculitis, thrombosis, and hemorrhage, incidence","[3]; 200 mg/kg/day, F",4/5
same,"Tail: Ulcerative dermatitis, incidence","[3]; 200 mg/kg/day, F",2/5
same,Body Weights Avg.,"[3]; 200 mg/kg/day, Female",24 grams
same,"Epididymus: Oligospermia, incidence","[3]; 200 mg/kg/day, M",1/5
same,"Heart: Interstitial fat, increased, incidence","[3]; 200 mg/kg/day, M",1/5
same,"Liver: Ito cell hypertrophy, incidence","[3]; 200 mg/kg/day, M",1/5
same,"Liver: Pyogranuloma, focal, incidence","[3]; 200 mg/kg/day, M",2/5
same,Number of animals/dose that tolerated 5 doses,"[3]; 200 mg/kg/day, M",5/5
same,"Testes: Seminiferous tubular degeneration, incidence","[3]; 200 mg/kg/day, M",1/5
same,Body Weights Avg.,"[3]; 200 mg/kg/day, Male",24 grams
same,Clinical Signs,[3]; 250 mg/kg/day IV daily x5,2 M tail necr.: amputate
same,"Liver: Focus of Alteration, eosinophilic, incidence","[3]; 250 mg/kg/day, F",1/5
same,"Liver: Hepatocyte hypertrophy: Centrilobular (compatible with SER), incidence","[3]; 250 mg/kg/day, F",1/5
same,"Liver: Inflammation, portal, incidence","[3]; 250 mg/kg/day, F",2/5
same,"Liver: Pyogranuloma, focal, incidence","[3]; 250 mg/kg/day, F",1/5
same,"Lung: Inflammation, focal, incidence","[3]; 250 mg/kg/day, F",1/5
same,Number of animals/dose that tolerated 4 doses,"[3]; 250 mg/kg/day, F",1/5
same,Number of animals/dose that tolerated 5 doses,"[3]; 250 mg/kg/day, F",4/5
same,Body Weights Avg.,"[3]; 250 mg/kg/day, Female",24 grams
same,"Epididymus: Oligospermia, incidence","[3]; 250 mg/kg/day, M",1/5
same,"Liver: Hepatocyte hypertrophy: Centrilobular (compatible with SER), incidence","[3]; 250 mg/kg/day, M",5/5
same,"Liver: Pyogranuloma, focal, incidence","[3]; 250 mg/kg/day, M",3/5
same,Number of animals/dose that tolerated 5 doses,"[3]; 250 mg/kg/day, M",5/5
same,"Tail: Acute necrosis with vasculitis, thrombosis, and hemorrhage, incidence","[3]; 250 mg/kg/day, M",2/5
same,"Tail: Ulcerative dermatitis, incidence","[3]; 250 mg/kg/day, M",1/5
same,"Testes: Seminiferous tubular degeneration, incidence","[3]; 250 mg/kg/day, M",2/5
same,Body Weights Avg.,"[3]; 250 mg/kg/day, Male",24 grams
same,Clinical Signs,[3]; 300 mg/kg/day IV daily x5,Slight decr. activity and 1 F tail necr.: amputate
same,"Kidney: Congestion, incidence","[3]; 300 mg/kg/day, F",1/5
same,"Liver: Hepatocyte hypertrophy: Centrilobular (compatible with SER), incidence","[3]; 300 mg/kg/day, F",2/5
same,"Liver: Hepatocyte hypertrophy: Panlobular w/eosinophilia, incidence","[3]; 300 mg/kg/day, F",1/5
same,"Liver: Pyogranuloma, focal, incidence","[3]; 300 mg/kg/day, F",1/5
